From patent publication US4596789A, “Proline derivatives” (ICI Americas Inc., priority 1983, dated 1986)
Starred links: 1 amine or outer side, 2 acyl side, 3 side chain; linkers in the order of their positions; H or OH if unused. Non-standard residues stand in square brackets, D forms with d. Residues, ends and D or L forms follow the SMILES beside them. *: point of attachment. Suc = O=C(CCC(=O)[*:2])[*:1]; MeOSuc = COC(=O)CCC(=O)*; Cbz = O=C(OCc1ccccc1)*; Boc = CC(C)(C)OC(=O)*; CO = O=C([*:1])[*:2]

How the values were obtained:
[1] = target: T1, human leukocyte elastase (HLE) (Homo sapiens, UniProt P08246); test: Inhibition of human leukocyte elastase acting on a peptide p-nitroanilide substrate, Ki from Dixon plot; type: biochemical; conditions: room temperature; 16.6% (v/v) DMSO, pH 8.1; substrate methoxysuccinyl-alanyl-alanylprolyl-valine-p-nitroanilide 1.6×10^-4 molar; read-out: Ki, dissociation constant of the inhibitor-HLE complex
T1 construct: The HLE enzyme used in these studies may be obtained according to B. R. Viscarello et al. in Preparative Biochemistry, Vol. 13 (1983); from tissue; The enzyme was isolated by a cited preparative procedure. b8 says HLE is released from the granules of polymorphonuclear leukocytes
T1 sequence (P08246 30-267): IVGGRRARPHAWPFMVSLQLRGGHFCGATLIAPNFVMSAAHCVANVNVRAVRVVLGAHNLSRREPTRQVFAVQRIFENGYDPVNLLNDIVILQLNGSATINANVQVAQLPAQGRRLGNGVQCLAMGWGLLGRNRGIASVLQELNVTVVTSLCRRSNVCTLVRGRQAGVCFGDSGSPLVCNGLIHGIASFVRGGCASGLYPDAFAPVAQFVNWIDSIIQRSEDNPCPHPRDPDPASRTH
Method: The potency of compounds of the invention to act as elastase inhibitors was determined by the ability of a compound of the invention to inhibit the action of human leukocyte elastase (HLE) on a low molecular weight peptide substrate. The potency of an inhibitor is evaluated by obtaining a kinetic determination of the dissociation constant, Ki, of the complex formed from the interaction of the inhibitor with HLE. The substrate used was the anilide methoxysuccinyl-alanyl-alanylprolyl-valine-p-nitroanilide as described by K. Nakajima et al. in The Journal of Biological Chemistry, Vol. 254, pages 4027-4032 (1979) and by T. Teshima et al. in The Journal of Biological Chemistry, Vol. 257, No. 9, pages 5085-5091 (1982). The HLE enzyme used in these studies may be obtained according to B. R. Viscarello et al. in Preparative Biochemistry, Vol. 13 (1983).
From HLE enzyme obtained as described in the Viscarello et al reference, a standard rate of production of p-nitroaniline was measured at room temperature spectrophotometrically in the visible spectrum at 410 nanometers, with automatic data acquisition in a Cary 210-Apple III Plus microcomputer system obtained from Varian Associates. Reactions were initiated by injection of a small aliquot (50 or 100 microliters) of a stock solution of the anilide substrate in DMSO into a curvette containing buffer and HLE enzyme. The amount of HLE used is sufficient to produce an initial velocity of about 0.01 OD (optical density) per minute. Final volume was 3.0 ml. Initial velocities of production of p-nitroaniline were determined from linear regression analysis of at least 30 data points (OD410 vs. time) taken during the initial, linear, portion of the reaction. The initial velocity for the HLE sample without any inhibitor being present was obtained and used as a standard for the subsequent determination of the initial velocity of the reaction in the presence of an inhibitor to be tested. The Ki value of a particular inhibitor was determined as follows. To a 3 ml cuvette were added […] of a buffer (9 millimolar sodium phosphate, 10% DMSO (v/v), pH=7.9), 100 microliters of inhibitor solution in DMSO and 20 microliters of HLE stock solution at the same concentration used in the control. After the inhibitor and enzyme solution had equilibrated, the reaction was initiated by the addition of 100 microliters of the stock substrate solution in DMSO. The final solution was 16.6% (v/v) in DMSO, with pH 8.1. The substrate was at an initial concentration of 1.6×10^-4 molar. […]

[2] = Pharmacokinetics: serum level of inhibitor after subcutaneous injection; type: in vivo, Male Syrian hamsters; conditions: serum inhibitor concentration vs time
Method: Pharmacokinetics: Male Syrian hamsters (80 to 120) g) are injected subcutaneously with the test compound. Prior to injection and at varying time periods thereafter they are lightly anesthetized with ether and blood samples of approximately 0.2 ml each are withdrawn by cardiac puncture. The blood is expressed into 2 ml centrifuge tubes and allowed to clot for one hr. The sample is then centrifuged and the serum removed. Blood samples are taken before (time 0) and 15, 30, 60, 90 and 120 minutes after subcutaneous administration of the test compound in an appropriate vehicle.
Drug levels are determined by first inactivating endogenous elastase inhibitors by incubation of 50 microliters of serum with an equal volume of buffer containing 5 mg/ml bovine pancreatic trypsin for 5 min. […] After an additional 2 min. incubation, the reaction is started by the addition of substrate (100 microliters) (MeOSuc-Ala-Ala-Pro-Val-pNA, 1.6 mM) and the reaction monitored spectrophotometrically at a wavelength of 410 nm. Serum concentrations of the test compounds are determined by the following equation: [formula] where [I], [E] and [S] are the assay concentrations of inhibitor enzyme and substrate respectively, Ki is the inhibition constant of the inhibitor being assayed, Km is the Michaelis constant of the substrate, Vo is the control uninhibited reaction velocity, and Vi is the inhibited reaction velocity. […]

human leukocyte elastase = target: T2, human leukocyte elastase (Homo sapiens, UniProt P08246); conditions: reported by Szabo et al. 1982, cited from earlier work
T2 sequence (P08246 30-267): T1 sequence (P08246 30-267)

| Ki [1] | activity in animals as measured by the pharmacokinetics test [2] | Compound | stronger inhibition than the other four aldehydes (human leukocyte elastase) | Ki (human leukocyte elastase; read-out: Ki (HLE inhibition)) |
| --- | --- | --- | --- | --- |
| 15 nM | – | CC(C)[C@H](NC(=O)[C@H](CCCCNC(=O)OCc1ccccc1)NC(=O)OC(C)(C)C)C(=O)N1CCC[C@H]1C(=O)N[C@H](C=O)C(C)C [Example 1f, N-alpha-t-Butyloxycarbonyl-N-epsilon-benzyloxycarbonyl-L-lysyl-L-valyl-L-p rolyl-L-valinal] (Boc-K(Cbz)VPV-aldehyde) | – | – |
| 30 nM | good activity in animals | CC(C)[C@H](NC(=O)[C@H](CCCCNC(=O)OCc1ccccc1)NC(=O)CCC(=O)O)C(=O)N1CCC[C@H]1C(=O)N[C@H](C=O)C(C)C [Example 5b, N-alpha-Succinyl-N-epsilon-benzyloxycarbonyl-L-lysyl-L-valyl-L-prolyl-L-va linal] (Suc-K(Cbz)VPV-aldehyde) | – | – |
| 6 nM | – | COC(=O)CCC(=O)N[C@@H](CCCCNC(=O)OCc1ccccc1)C(=O)N[C@H](C(=O)N1CCC[C@H]1C(=O)N[C@H](C=O)C(C)C)C(C)C [Example 8b, N-alpha-Methoxysuccinyl-N-epsilon-benzyloxycarbonyl-L-lysyl-L-valyl-L-prol yl-L-valinal] (MeOSuc-K(Cbz)VPV-aldehyde) | – | – |
| 94 nM | – | COC(=O)[C@H](CC(C)C)NC(=O)N[C@H](C(=O)N1CCC[C@H]1C(=O)N[C@H](C=O)C(C)C)C(C)C [Example 32g, N-[1(S)-Carbomethoxy-3-methylbutyl]carbamoyl-L-valyl-L-prolyl-L-valinal] ({OMe-Leu-CO}-Val-Pro-Val-aldehyde) | – | – |
| – | – | CC(C)[C@@H](C=O)NC(=O)[C@@H]1CCCN1C(=O)[C@@H](Cc1ccccc1)NC(=O)CCC(=O)O [N-succinyl-D-phenylalanyl-L-prolyl-L-valinal] (Suc-[dF]-Pro-Val-aldehyde) | 10-100 times | 40000 nM |
